Test results as given in patent publication US9109004B2, “Progesterone receptor antagonists” (Bayer Intellectual Property GmbH, priority 2010, dated 2015).

Key:
[1] = Metabolic stability in human liver microsomes (HLM); assay type: in vitro ADME; details: from HLM half-life, well-stirred model, phase I reactions; 1 μM test compound
Procedure: Metabolic stability of 4-[(11β,17β)-17-hydroxy-3-oxo-17-(pentafluoro-ethyl)estra-4,9-dien-11-yl]benzamide and 4′-[(11β,17β)-17-hydroxy-3-oxo-17-(pentafluoro-ethyl)estra-4,9-dien-11-yl]biphenyl-4-carboxamide in human liver microsomes (HLM) Isolated human liver microsomes (HLM) were used for assessing the metabolic stability of compounds of general formula I. The incubations were carried out with 2.4 ml HLM solution (0.5 mg/ml protein content), 30 μl of the test compound (final concentration 1 μM) and 0.6 ml of the cofactor mixture (=NADPH-generating system of 3 IU glucose-6-phosphate dehydrogenase, 14.6 mg glucose-6-phosphate, 1.2 mg NADP) at 37° C. in 100 mM phosphate buffer at pH 7.4. Samples are taken at 6 time points (2-60 min), precipitated with an equal volume of methanol, and the recovery of the test substances used in the supernatant is determined by LC-MS/MS analysis. The intrinsic clearance of the substance in the liver microsome assay can be calculated from the value found for the half-life of substance breakdown. Using this, on the basis of various physiological characteristics according to the well-stirred model it is possible to predict a (metabolic) in-vivo clearance with respect to phase I reactions.

[2] = Clearance and half-life after intravenous application in rats; assay type: in vivo, rat; details: female rats, i.v. bolus 0.3-0.5 mg/kg
Procedure: Determination of Clearance and Half-Life after Intravenous Application in Rats
The in-vivo clearance and half-life of the test substances were determined in female rats with a body weight of approx. 200-250 g. For this, the test substances (in cassette testing, up to 3 different substances per animal) were applied in dissolved form at a dose of 0.3-0.5 mg/kg as a bolus with a volume of 2 ml/kg intravenously (i.v.) in the caudal vein, using compatible solubilizers such as PEG400 and/or ethanol in a compatible amount. Blood samples of approx. 0.2 mL were taken from a polyurethane catheter in the vena jugularis at the time points 2 min, 8 min, 15 min, 30 min, 45 min, 1 h, 2 h, 4 h, 6 h, 8 h, 24 h. The blood samples were kept in lithium-heparin tubes (Monovetten® from Sarstedt) without shaking, and were centrifuged for 15 min at 3000 rpm. A 100 μL aliquot was taken from the supernatant (plasma) and was precipitated by adding 400 μL of cold methanol. The precipitated samples were frozen out overnight at −20° C., then centrifuged once again for 15 min at 3000 rpm before 150 μL of the clear supernatant was taken for the determination of concentration. Analysis was carried out with an Agilent 1200 HPLC system connected to LCMS/MS detection.
Calculation of the pK Parameters (Via Non-Linear Regression by pK Calculation Software): […]

pregnant rats = experiment: Test as abortifacient in female rats (termination of early pregnancy); assay type: in vivo, rat; details: d5-d7 p.c., autopsy d9 p.c.
Procedure: Test as Abortifacient in Female Rats
The antagonistic action of the compounds according to the invention was tested on pregnant rats (6 rats per group) on day 5 to 7 post coitum in conventional conditions of husbandry and feeding.
After successful mating, the pregnant animals (presence of sperm in the vaginal smear on day 1 of pregnancy=d1 p.c.) were randomized and were divided into the treatment group and the control group. The animals then received, subcutaneously or orally, in each case 0.15; 0.5; 1.5 or 5 mg/kg of the test compound or 1.0 ml/kg of vehicle (benzyl benzoate/castor oil: 1+4 [v/v]) daily from day 5 to day 7 (d5-d7 p.c.).
Autopsy was carried out on day 9 (d9 p.c.). For characterization of progesterone-receptor-antagonistic action, the uterus was investigated for the presence of nidation sites. Complete absence, but also the presence of pathological, haemorrhagic or otherwise abnormal nidation sites on day 9 (d9 p.c.) was assessed as abortion.

Structure (SMILES): C[C@]12C[C@H](c3ccc(-c4ccc(C(N)=O)cc4)cc3)C3=C4CCC(=O)C=C4CC[C@H]3[C@@H]1CC[C@@]2(O)C(F)(F)C(F)(F)F [Example 79, 4′-[(11β,17β)-17-Hydroxy-3-oxo-17-(pentafluoroethyl)estra-4,9-dien-11-yl]biphenyl-4-carboxamide]
- (metabolic) in-vivo clearance in humans predicted [1]: 3.5 mL/min/kg
- CLblood [2]: 6.7 mL/min/kg
- half-life ([2]; rat, plasma, iv, terminal half-life, read-out: t½ (converted)): 9 h
- Abortion rate (pregnant rats; daily dose 0.5 mg/kg p.o.): 100%
- Abortion rate (pregnant rats; daily dose 1.5 mg/kg p.o.): 100%
- Abortion rate (pregnant rats; daily dose 5.0 mg/kg p.o.): 100%
